Reference: patent US20260250412A1, “COMBINATION OF ANTIBODY-DRUG CONJUGATE AND ANTI-PD-1 ANTIBODY, AND USE THEREOF” (GENEQUANTUM HEALTHCARE (SUZHOU) CO., LTD., priority 2023, published 2026)
“And” between values parts separate entries of the source, which are not always exact repeats. Identical values can stand only once.

Assays:
[1] = tested on: Trop2-positive cells BxPC-3 and Trop2-negative cells HepG2; assay: Bystander killing in BxPC-3/HepG2 co-culture assay (BxPC-3:HepG2=4:1); assay type: cell-based, human; details: 10 nM, 96 h
Method: After the treatment, the cells were moved to the incubator and incubated for 96 h. After the incubation, cells were digested, and washed once with 1×PBS, then transferred to a flow tube, and centrifuged at 2000 rpm for 3 min. The supernatant was then discarded, and the cell amount and cell viability were detected. […] The cells were washed with 1×PBS, the supernatant was discarded after centrifugation, 200 μL of 5 μg/mL human IgG Fe antibody was added, and the resulting cells were continued to incubate at 4° C. for 30 min after mixing. Finally, the cells were washed with 1×PBS, the supernatant was discarded after centrifugation, and the cells were resuspended in PBS, detected by flow cytometry and analyzed by FlowJo software.

[2] = tested on: human gastric cancer cells NCI-N87; assay: Cell proliferation, CellTiter Glo, 96 h, NCI-N87; assay type: cell-based; details: NCI-N87, 96 h
Method: Two thousand human pharyngeal squamous cells carcinoma FaDu with high TROP2 expression were seeded into 96-well plates in 100 μL of culture medium per well, and incubated overnight in a cell incubator at 37° C. and 5% CO2. […] A positive control group was set: 100 μL Puromycin at a concentration of 10 μg/mL was added to each well. A negative control group was set: 100 μL of complete medium of FaDu cells was added to each well. After the administration was completed, the cells were moved to the incubator and incubated for 96 h. The 96-well plate was removed from the 37° C. cell incubator and equilibrated to room temperature for 30 minutes. After the medium was discarded, 100 μL of DMEM and 50 μL of CellTiter Glo reagent were added to each well, and the cells were shaken in the dark at 200 rpm for 15 minutes, and the luminescent signal reflecting cell viability was detected by a microplate reader. The inhibitory effects of the tested drugs on the proliferation of human pharyngeal squamous cell carcinoma FaDu are as shown in FIG. 2 and Table 7.
The human pharyngeal squamous cells carcinoma FaDu in Example 2.1.1 were replaced with human gastric cancer cells NCI-N87 (100 μL per well containing 5000 cells), and the inhibitory effect of ADC-7 was evaluated using the same process.

[3] = tested on: Trop2 positive cancer cells FaDu; assay: Cytotoxicity assay, CellTiter-Glo, 168 h, FaDu; assay type: cell-based, human
Method: (§1) In brief, 3000 to 5000 cells were plated in 96-well plates, and cells were able to attach overnight. Cells were treated with indicated drugs with various concentrations for 168 h. Cell viabilities were examined by CellTiter-Glo® Luminescent Cell Viability Assay, and percentage of cell viability was calculated.

[4] = tested on: Trop2 positive cancer cells NCI-N87; assay: Cytotoxicity assay, CellTiter-Glo, 168 h, NCI-N87; assay type: cell-based, human
Method: as §1

[5] = tested on: BxPC-3 mouse xenograft tumor; assay: In vivo efficacy, BxPC-3 mouse xenograft tumor; set-up: species or system BALB/c nude mice; details: for T/C (%) / TGI (%) / Tumor volume (mm^3) Day 0 / tumor growth inhibition (in words): 3 mg/kg; for Tumor volume (mm^3) Day 0: baseline at grouping
Method: I. The logarithmic growth phase BxPC-3 were collected and the cell density was adjusted to 10×10^6 cells/mL with Matrigel buffer (PBS:Matrigel=1:1). 0.2 mL of the prepared BxPC-3 cell suspension was subcutaneously injected into the right scapula of SPF female BALB/c nude mice aged 6-8 weeks.
II. The tumor diameter was measured with a vernier caliper and the tumor volume was calculated according to the formula V=0.5a×b^2 (where a is the longest diameter of the tumor and b is the shortest diameter of the tumor). […] Animals in each group were administered by tail vein injection, and the control group was given an equal volume of vehicle. […] T/C and TGI values were calculated using tumor volume. The calculation formula is as follows: T/C %=TRTV/CRTV×100% (TRTV: RTV of the treatment group; CRTV: RTV of the vehicle control group). The relative tumor volume (RTV) was calculated based on the results of tumor measurement, and the calculation formula was RTV=Vt/V0, where V0 was the average tumor volume measured at the time of grouping (i.e., D0), Vt was the average tumor volume at one measurement, and TRTV and CRTV took the same day of data.
6 days after cell inoculation, when the average tumor volume was about 159 mm^3, animals were randomly divided into vehicle control group, ADC-5 3 mg/kg group, ADC-6 3 mg/kg group, and DS1062a 3 mg/kg group, with 6 animals in each group.

[6] = tested on: NCI-N87 mouse xenograft tumor; assay: In vivo efficacy, NCI-N87 mouse xenograft tumor; set-up: species or system BALB/c nude mice; details: 3 mg/kg; for Tumor volume (mm^3) Day 0: baseline at grouping
[7] = tested on: MC38-hTROP2 colon carcinoma; assay: In vivo efficacy, MC38-hTROP2 colon carcinoma syngeneic CDX model; set-up: species or system C57BL/6J mice; details: Table 22, monotherapy 3 mg/kg
Method: Objective: To evaluate the in vivo anti-tumor efficacy of the combination of ADC drug ADC2 with Anti-mPD-1 in mice bearing colon carcinoma Trop2-high CDX model.
I. MC38-hTROP2 cells (Biocytogen) in exponential growth stage were collected and counted for tumor inoculation. 0.5×10^6 cells in 0.1 mL of PBS were used to subcutaneously inject into the right flank of SPF female C57BL/6J mice aged 6-8 weeks.
II. 6 days after inoculation, the tumor diameter was measured with a caliper and the tumor volume was calculated according to the formula V=0.5 a×b^2 (wherein a is the long diameter of the tumor and b is the short diameter of the tumor). When the mean tumor volume was about 100-300 mm^3, the mice were randomized into vehicle group, ADC2 3 mg/kg group, DS1062a 3 mg/kg group, Anti-mPD-1 (Bio X cell, 825822J1) 1 mg/kg group, ADC2+Anti-mPD-1 combination group and DS1062a+Anti-mPD-1 combination group. Each group includes 6 mice. The day of first administration is defined as day 0. Mice in the vehicle group were given the solvent of ADC2 and the solvent of Anti-mPD-1 with the same frequency and administration route. The tumor volume of mice in each group was measured twice a week.

In the case of DS1062a, the “Amount of cells (10^4) BxPC-3” value ([1]; Table 4) is reported as 10.88 10^4, the “Amount of cells (10^4) HepG2” value ([1]; Table 4) is reported as 33.72 10^4 and the “Cell proportion (%) BxPC-3” value ([1]; Table 4) is reported as 24.4%. The “Cell proportion (%) HepG2” value ([1]; Table 4) was 75.6%, the “Number of viable cells (10^4)” value ([1]; Table 4, whole co-culture) was 44.6 10^4 and the “bystander killing effect (in words)” value ([1]; effect example 1.1) was “had bystander killing effects”. The “inhibition of proliferation (in words)” value [2] was “could inhibit the proliferation of NCI-N87 cells”, the IC50 ([2]; Table 10) was 1.26 nM and the IC50 [3] was 0.17 nM. For the same substance, the IC50 [4] was 2.1 nM, the “Tumor volume (mm^3) Day 35” value ([5]; Table 13, 3 mg/kg, tail vein injection) was 847 mm^3 and 847 ± 104 mm^3 and the “T/C (%)” value ([5]; Table 13, Day 35) was 64.05%. The “TGI (%)” value ([5]; Table 13, Day 35) was 40.54%, the “Tumor volume (mm^3) Day 0” value ([5]; Table 13, tail vein injection) was 151 ± 12 mm^3 and the “Tumor volume (mm^3) Day 28” value ([5]; Table 16, 3 mg/kg) was 540 mm^3 and 540 ± 74 mm^3. For the same substance, the “T/C (%)” value ([5]; Table 16, Day 28) was 58.49%, the “TGI (%)” value ([5]; Table 16, Day 28) was 48.52% and the “Tumor volume (mm^3) Day 0” value ([5]; Table 16) was 151 ± 12 mm^3. For the same substance, the “Tumor volume (mm^3) Day 42” value ([5]; Table 19, 3 mg/kg) was 302 mm^3 and 302 ± 73 mm^3, the “T/C (%)” value ([5]; Table 19, Day 42) was 27.69% and the “TGI (%)” value ([5]; Table 19, Day 42) was 84.60%. The “Tumor volume (mm^3) Day 0” value ([5]; Table 19) was 159 ± 11 mm^3, the “tumor growth inhibition (in words)” value ([5]; effect example 3.1.1, compared with the control group) was “could significantly inhibit tumor growth” and the “tumor growth inhibition (in words)” value ([5]; effect example 3.3.1, after 42 days) was “could significantly inhibit tumor growth”. The “Tumor volume (mm^3) Day 32” value ([6]; Table 14, single dose) was 658 mm^3 and 658 ± 43 mm^3, the “T/C (%)” value ([6]; Table 14, single dose, Day 32) was 49.98% and the “TGI (%)” value ([6]; Table 14, single dose, Day 32) was 60.23%. The “Tumor volume (mm^3) Day 0” value ([6]; Table 14, single dose) was 228 ± 20 mm^3, the “Tumor volume (mm^3) Day 28” value ([6]; Table 17) was 255 mm^3 and 255 ± 35 mm^3 and the “T/C (%)” value ([6]; Table 17, Day 28) was 40.30%. For the same substance, the “TGI (%)” value ([6]; Table 17, Day 28) was 84.96%, the “Tumor volume (mm^3) Day 0” value ([6]; Table 17) was 188 ± 11 mm^3 and the “Tumor volume (mm^3) Day 42” value ([6]; Table 20) was 437 mm^3 and 437 ± 89 mm^3. The “T/C (%)” value ([6]; Table 20, Day 42) was 35.67%, the “TGI (%)” value ([6]; Table 20, Day 42) was 76.58% and the “Tumor volume (mm^3) Day 0” value ([6]; Table 20) was 196 ± 14 mm^3. The “tumor growth inhibition (in words)” value ([6]; effect example 3.1.2, after 32 days) was “able to significantly inhibit tumor growth”, the “tumor growth inhibition (in words)” value ([6]; effect example 3.2.2, after 28 days) was “can significantly inhibit NCI-N87 tumor growth” and the “tumor growth inhibition (in words)” value ([6]; effect example 3.3.2, after 42 days) was “could significantly inhibit tumor growth”. The “TGI (%)” value ([7]; day 28) was 12.8% and the “Tumor volume (mm^3)” value ([7]; end day (day 28), mean) was 1415 mm^3.
